# Assay results taken from US10899774B2, “IRAK4 modulators” (Genentech, Inc., priority 2017, dated 2021).
# Target: human IRAK4 (Homo sapiens (Human), UniProt Q9NWZ3)
# Assay: IRAK4 kinase inhibition, Transcreener fluorescence polarization (ADP detection)
# Assay type: biochemical
# Settings: recombinant full-length His6-IRAK4; 1.25 nM IRAK4; 125 μM ATP; 90 min; ATP Km 642 μM
# Experimental: Compounds were assayed for inhibition of human IRAK4 and IRAK1 catalytic activity using recombinant enzyme produced from insect cells. Full-length IRAK4 protein, carrying an N-terminal His6-Tag, was obtained from Life Technologies (Carlsbad, Calif., USA). The IRAK1 construct was produced internally and was comprised of IRAK1 residues Arg194 to Ser712, preceded by an NH2-terminal His6 tag and the coding sequence for glutathione-S-transferase.
# Kinase activities were assayed using the Transcreener-Fluorecescence polarization platform (BelBrook Labs, Madison, Wis., USA) that measures amounts of the reaction product, ADP.
# 384 well assay plates spotted with compound received 4 μl of a 2× substrate (ATP+peptide) mix in reaction buffer, followed by 4 μl of 2× enzyme diluted in reaction buffer.
# Sequence of human IRAK4 (Q9NWZ3 whole entry): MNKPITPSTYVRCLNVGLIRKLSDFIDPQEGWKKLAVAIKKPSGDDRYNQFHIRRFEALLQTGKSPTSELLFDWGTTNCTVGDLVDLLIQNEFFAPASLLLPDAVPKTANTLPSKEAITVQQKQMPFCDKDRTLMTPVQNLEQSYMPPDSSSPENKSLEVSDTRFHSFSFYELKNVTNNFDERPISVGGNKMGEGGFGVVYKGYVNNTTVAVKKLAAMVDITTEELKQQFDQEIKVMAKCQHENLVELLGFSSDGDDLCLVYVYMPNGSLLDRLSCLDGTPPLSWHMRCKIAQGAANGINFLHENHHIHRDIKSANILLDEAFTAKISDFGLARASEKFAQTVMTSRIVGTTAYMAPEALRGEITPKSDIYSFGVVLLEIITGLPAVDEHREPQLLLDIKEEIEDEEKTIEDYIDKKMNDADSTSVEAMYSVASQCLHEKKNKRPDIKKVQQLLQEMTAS
row,SMILES,Ki [nM]
1,"Cn1ccc(C(=O)Nc2cc3c(cc2N2CCOCC2)O[C@](C)(CO)C3)n1 (single isomer, unassigned) [Example 16]",48
2,"Cn1ccc(C(=O)Nc2cc3c(cc2N2CCOCC2)O[C@@](C)(CO)C3)n1 (single isomer, unassigned) [Example 17]",120
3,"Cn1nnc2c(C(=O)Nc3cc4c(cc3N3CCOCC3)O[C@@](C)(CO)C4)cncc21 (single isomer, unassigned) [Example 67]",180
4,"Cn1nnc2c(C(=O)Nc3cc4c(cc3N3CCOCC3)O[C@](C)(CO)C4)cncc21 (single isomer, unassigned) [Example 68]",70
5,"C[C@]1(CO)Cc2cc(NC(=O)c3csc4cc(Cl)cnc34)c(N3CCOCC3)cc2O1 (stereo in doubt) [Example 56, (R)-6-Chloro-N-(2-(hydroxymethyl)-2-methyl-6-morpholino-2,3-dihydrobenzofuran-5-yl)thieno[3,2-b]pyridine-3-carboxamide]",37
6,"CC1(C)Cc2cc(NC(=O)c3cnn4c3OCCC4)c(N3CCOCC3)cc2O1 [Example 1, N-(2,2-Dimethyl-6-morpholino-2,3-dihydrobenzofuran-5-yl)-6,7-dihydro-5H-pyrazolo[5,1-b][1,3]oxazine-3-carboxamide]",67
7,"CC1(C)Cc2cc(NC(=O)c3ccc(O)nn3)c(N3CCOCC3)cc2O1 [Example 2, N-(2,2-Dimethyl-6-morpholino-2,3-dihydrobenzofuran-5-yl)-6-hydroxypyridazine-3-carboxamide]",30
8,"Cc1nc(C(=O)Nc2cc3c(cc2N2CCOCC2)OC(C)(C)C3)cs1 [Example 6, N-(2,2-Dimethyl-6-morpholino-2,3-dihydrobenzofuran-5-yl)-2-methylthiazole-4-carboxamide]",38
9,"Cc1cncc(C(=O)Nc2cc3c(cc2N2CCOCC2)OC(C)(C)C3)n1 [Example 7, N-(2,2-Dimethyl-6-morpholino-2,3-dihydrobenzofuran-5-yl)-6-methylpyrazine-2-carboxamide]",43
10,"CC1(C)Cc2cc(NC(=O)c3cccc(F)n3)c(N3CCOCC3)cc2O1 [Example 8, N-(2,2-Dimethyl-6-morpholino-2,3-dihydrobenzofuran-5-yl)-6-fluoropicolinamide]",45
11,"CC1(C)Cc2cc(NC(=O)c3ccnc(S(C)(=O)=O)n3)c(N3CCOCC3)cc2O1 [Example 9, N-(2,2-Dimethyl-6-morpholino-2,3-dihydrobenzofuran-5-yl)-2-(methylsulfonyl)pyrimidine-4-carboxamide]",530
12,"CC1(C)Cc2cc(NC(=O)c3cc4ccncc4o3)c(N3CCOCC3)cc2O1 [Example 10, N-(2,2-Dimethyl-6-morpholino-2,3-dihydrobenzofuran-5-yl)furo[2,3-c]pyridine-2-carboxamide]",27
13,"CC1(C)Cc2cc(NC(=O)c3cnccn3)c(N3CCOCC3)cc2O1 [Example 11, N-(2,2-Dimethyl-6-morpholino-2,3-dihydrobenzofuran-5-yl)pyrazine-2-carboxamide]",290
14,"CC1(C)Cc2cc(NC(=O)c3ccc[nH]c3=O)c(N3CCOCC3)cc2O1 [Example 12, N-(2,2-Dimethyl-6-morpholino-2,3-dihydrobenzofuran-5-yl)-2-oxo-1,2-dihydropyridine-3-carboxamide]",77
15,"Cc1cnc(C(=O)Nc2cc3c(cc2N2CCOCC2)OC(C)(C)C3)cn1 [Example 13, N-(2,2-Dimethyl-6-morpholino-2,3-dihydrobenzofuran-5-yl)-5-methylpyrazine-2-carboxamide]",280
16,"CC1(C)Cc2cc(NC(=O)c3cnsn3)c(N3CCOCC3)cc2O1 [Example 14, N-(2,2-Dimethyl-6-morpholino-2,3-dihydrobenzofuran-5-yl)-1,2,5-thiadiazole-3-carboxamide]",340
17,"CC1(C)Cc2cc(NC(=O)c3cnc4cccnn34)c(N3CCOCC3)cc2O1 [Example 15, N-(2,2-Dimethyl-6-morpholino-2,3-dihydrobenzofuran-5-yl)imidazo[1,2-b]pyridazine-3-carboxamide]",36
18,"CC1(C)Cc2cc(NC(=O)c3cccc4[nH]cnc34)c(N3CCOCC3)cc2O1 [Example 20, N-(2,2-Dimethyl-6-morpholino-2,3-dihydrobenzofuran-5-yl)-1H-benzo[d]imidazole-4-carboxamide]",30
19,"CC1(C)Cc2cc(NC(=O)c3cncc4[nH]cnc34)c(N3CCOCC3)cc2O1 [Example 21, N-(2,2-Dimethyl-6-morpholino-2,3-dihydrobenzofuran-5-yl)-3H-imidazo[4,5-c]pyridine-7-carboxamide]",280
20,"CC1(C)Cc2cc(NC(=O)c3cccc(C(F)(F)F)n3)c(N3CCOCC3)cc2O1 [Example 22, N-(2,2-Dimethyl-6-morpholino-2,3-dihydrobenzofuran-5-yl)-6-(trifluoromethyl)picolinamide]",25
21,"Cc1nc2c(C(=O)Nc3cc4c(cc3N3CCOCC3)OC(C)(C)C4)cncc2[nH]1 [Example 25, N-(2,2-Dimethyl-6-morpholino-2,3-dihydrobenzofuran-5-yl)-2-methyl-3H-imidazo[4,5-c]pyridine-7-carboxamide]",35
22,"C[C@H]1COCCN1c1nc(C(=O)Nc2cc3c(cc2N2CCOCC2)OC(C)(C)C3)co1 [Example 26, (S)-N-(2,2-Dimethyl-6-morpholino-2,3-dihydrobenzofuran-5-yl)-2-(3-methylmorpholino)oxazole-4-carboxamide]",35
23,"CC1(C)Cc2cc(NC(=O)c3ccccn3)c(N3CCOCC3)cc2O1 [Example 27, N-(2,2-Dimethyl-6-morpholino-2,3-dihydrobenzofuran-5-yl)picolinamide]",42
24,"CC1(C)Cc2cc(NC(=O)c3c[nH]c4cccnc34)c(N3CCOCC3)cc2O1 [Example 28, N-(2,2-Dimethyl-6-morpholino-3H-benzofuran-5-yl)-1H-pyrrolo[3,2-b]pyridine-3-carboxamide]",470
25,"Cc1ccc(-c2cc3c(cc2NC(=O)c2cnc(C)o2)CC(C)(C)O3)nc1 [Example 29, N-[2,2-Dimethyl-6-(5-methyl-2-pyridyl)-3H-benzofuran-5-yl]-2-methyl-oxazole-5-carboxamide]",230
26,"CC1(C)Cc2cc(NC(=O)c3cccs3)c(N3CCOCC3)cc2O1 [Example 30, N-(2,2-Dimethyl-6-morpholino-2,3-dihydrobenzofuran-5-yl)thiophene-2-carboxamide]",780

# Now from value to molecule:
row,Ki [nM],SMILES
1,3.4,"C[C@@]1(CO)Cc2cc(NC(=O)c3ccc4cccnn34)c(N3CCOCC3)cc2O1 (single isomer, unassigned) [Example 18]"
2,21,"C[C@]1(CO)Cc2cc(NC(=O)c3ccc4cccnn34)c(N3CCOCC3)cc2O1 (single isomer, unassigned) [Example 19]"
3,3.6,"C[C@@]1(CO)Cc2cc(NC(=O)c3ccc4cncnn34)c(N3CCOCC3)cc2O1 (single isomer, unassigned) [Example 23]"
4,7.7,"C[C@]1(CO)Cc2cc(NC(=O)c3ccc4cncnn34)c(N3CCOCC3)cc2O1 (single isomer, unassigned) [Example 24]"
5,19,"C[C@@]1(CO)Cc2cc(NC(=O)c3csc4cc(Cl)cnc34)c(N3CCOCC3)cc2O1 (stereo in doubt) [Example 57, (S)-6-Chloro-N-(2-(hydroxymethyl)-2-methyl-6-morpholino-2,3-dihydrobenzofuran-5-yl)thieno[3,2-b]pyridine-3-carboxamide]"
6,13,"CC1(C)Cc2cc(NC(=O)c3csc4c(N)ncnc34)c(N3CCOCC3)cc2O1 [Example 3, 4-Amino-N-(2,2-dimethyl-6-morpholino-2,3-dihydrobenzofuran-5-yl)thieno[3,2-d]pyrimidine-7-carboxamide]"
7,7.1,"CC1(C)Cc2cc(NC(=O)c3cccc4[nH]nnc34)c(N3CCOCC3)cc2O1 [Example 4, N-(2,2-Dimethyl-6-morpholino-2,3-dihydrobenzofuran-5-yl)-1H-benzo[d][1,2,3]triazole-4-carboxamide]"
8,25,"Cc1nc(C(=O)Nc2cc3c(cc2N2CCOCC2)OC(C)(C)C3)ccc1C#N [Example 5, 5-Cyano-N-(2,2-dimethyl-6-morpholino-2,3-dihydrobenzofuran-5-yl)-6-methylpicolinamide]"
9,23,"Cc1ccc(C(=O)Nc2cc3c(cc2N2CCOCC2)OC(C)(C)C3)o1 [Example 31, N-(2,2-Dimethyl-6-morpholino-2,3-dihydrobenzofuran-5-yl)-5-methylfuran-2-carboxamide]"
10,19,"CC1COCCN1c1nc(C(=O)Nc2cc3c(cc2N2CCOCC2)OC(C)(C)C3)cs1 (stereo not drawn) [Example 32, N-(2,2-Dimethyl-6-morpholino-2,3-dihydrobenzofuran-5-yl)-2-(3-methylmorpholino)thiazole-4-carboxamide]"
11,3.7,"Cc1cn(-c2nc(C(=O)Nc3cc4c(cc3N3CCOCC3)OC(C)(C)C4)co2)cn1 [Example 33, N-(2,2-Dimethyl-6-morpholino-2,3-dihydrobenzofuran-5-yl)-2-(4-methyl-1H-imidazol-1-yl)oxazole-4-carboxamide]"
12,17,"CC1(C)Cc2cc(NC(=O)c3coc(-c4ccncn4)n3)c(N3CCOCC3)cc2O1 [Example 34, N-(2,2-Dimethyl-6-morpholino-2,3-dihydrobenzofuran-5-yl)-2-(pyrimidin-4-yl)oxazole-4-carboxamide]"
13,1.4,"Cc1cc(-c2nc(C(=O)Nc3cc4c(cc3N3CCOCC3)OC(C)(C)C4)co2)ccn1 [Example 35, N-(2,2-Dimethyl-6-morpholino-2,3-dihydrobenzofuran-5-yl)-2-(2-methylpyridin-4-yl)oxazole-4-carboxamide]"
